Assay results taken from US20240351986A1, “UREA COMPOUND CONTAINING 2-HETEROAROMATIC RING SUBSTITUTION, PREPARATION METHOD THEREFOR AND USE THEREOF” (SHANGHAI INSTITUTE OF MATERIA MEDICA, CHINESE ACADEMY OF …, priority 2021, published 2024).
Structures can show the parent of a compound that is named as a salt. Where two headings read alike, the source gives them in different places.

Columns and labels:
WSU-DLCL2 cells = assay: Tumor cell proliferation inhibition in vitro (CCK-8); type: cell-based; conditions: Homo sapiens, WSUDLCL2, 72 hours
Protocol: Experimental method: WSU-DLCL2 cells in good condition were seeded in a 96-well plate at 20,000/well. The test compound was gradient diluted with PBS and then added to the wells. After incubating with the cells for 72 hours, 10 μl of CCK-8 reagent was added to each well. After further incubation, the absorbance was measured at 460 nm and the 4-parameter curve fitting of Softmax Pro software was used to calculate the proliferation inhibition IC50 of the test compound.

U2932 = assay: Tumor cell proliferation inhibition in vitro; type: cell-based; conditions: Homo sapiens
Pfeiffer = assay: Tumor cell proliferation inhibition in vitro; type: cell-based; conditions: for IC50: Homo sapiens, Pfeiffer, proliferation
Will2 = assay: Tumor cell proliferation inhibition in vitro; type: cell-based
422 = assay: Tumor cell proliferation inhibition in vitro; type: cell-based; conditions: for IC50: proliferation
[1] = PK parameters in mice after iv and po administration (LC-MS/MS of plasma); type: in vivo; conditions: for AUC(0-t) / half-life / AUC(0-inf) / MRT inf / Cmax / Tmax: mouse, plasma; for AUC(0-inf): read-out: AUCINF_obs; for MRT inf: read-out: MRTINF_obs; for F: oral bioavailability
Protocol: The relevant pharmacokinetic parameters were calculated to examine the oral bioavailability and pharmacokinetic properties of the compound in mice.

[2] = target: T1, Recombinant human CDK9/cyclin T1 (Homo sapiens, UniProt P50750); assay: CDK9 enzyme inhibitory activity (ADP-Glo kinase assay); type: biochemical; conditions: for inhibition at 0.01 µM / inhibition at 0.1 µM: CDK9 enzyme activity, average of two independent repeats; for inhibition at 0.01 µM: compound 10 nM, read-out: Inhibition rate at different concentrations (%) 10 nM; for inhibition at 0.1 µM: compound 100 nM, read-out: Inhibition rate at different concentrations (%) 100 nM; for IC50: Table 2, read-out: CDK9/CycT1 IC50
T1 construct: purchased Carna bioscience 04-110
T1 sequence (P50750 whole entry): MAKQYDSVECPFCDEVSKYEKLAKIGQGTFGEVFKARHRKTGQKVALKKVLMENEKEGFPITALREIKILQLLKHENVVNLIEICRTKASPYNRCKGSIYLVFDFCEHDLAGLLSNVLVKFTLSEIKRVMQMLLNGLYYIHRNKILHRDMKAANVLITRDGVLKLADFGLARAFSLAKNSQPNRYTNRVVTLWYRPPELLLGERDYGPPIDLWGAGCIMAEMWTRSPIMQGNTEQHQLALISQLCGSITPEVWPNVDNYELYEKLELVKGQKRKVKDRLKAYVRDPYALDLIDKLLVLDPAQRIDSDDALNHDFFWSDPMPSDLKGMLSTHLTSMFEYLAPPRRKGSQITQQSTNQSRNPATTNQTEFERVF
T1 sequence (O60563 whole entry partner): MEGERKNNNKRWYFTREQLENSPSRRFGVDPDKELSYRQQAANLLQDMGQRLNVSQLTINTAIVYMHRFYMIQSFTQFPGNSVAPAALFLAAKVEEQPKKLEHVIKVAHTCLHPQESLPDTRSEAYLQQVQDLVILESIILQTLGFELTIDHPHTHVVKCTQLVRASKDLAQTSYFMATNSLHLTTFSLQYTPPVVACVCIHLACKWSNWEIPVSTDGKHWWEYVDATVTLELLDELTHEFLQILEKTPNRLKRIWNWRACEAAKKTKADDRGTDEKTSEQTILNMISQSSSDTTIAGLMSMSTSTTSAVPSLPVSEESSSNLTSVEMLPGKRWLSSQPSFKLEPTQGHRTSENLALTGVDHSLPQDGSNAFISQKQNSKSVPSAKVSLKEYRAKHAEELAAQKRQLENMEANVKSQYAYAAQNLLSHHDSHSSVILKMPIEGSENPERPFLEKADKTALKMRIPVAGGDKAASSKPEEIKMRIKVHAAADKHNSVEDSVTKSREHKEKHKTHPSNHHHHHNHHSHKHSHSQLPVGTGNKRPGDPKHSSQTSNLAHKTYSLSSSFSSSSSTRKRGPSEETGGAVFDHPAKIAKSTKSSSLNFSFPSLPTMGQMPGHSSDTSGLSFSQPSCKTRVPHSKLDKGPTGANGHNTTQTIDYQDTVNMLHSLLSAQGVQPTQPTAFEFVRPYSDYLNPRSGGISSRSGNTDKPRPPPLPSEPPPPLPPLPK

CDK1/cyclin B = CDK1/cyclin B (Homo sapiens, UniProt P06493); assay: CDK1 enzyme activity inhibition; type: biochemical; conditions: for inhibition at 0.01 µM: compound 10 nM, read-out: CDK1/Cyc B inhibition rate % 10 nM; for inhibition at 0.1 µM: compound 100 nM, read-out: CDK1/Cyc B inhibition rate % 100 nM
CDK1/cyclin B, sequence (P06493 whole entry, species assumed): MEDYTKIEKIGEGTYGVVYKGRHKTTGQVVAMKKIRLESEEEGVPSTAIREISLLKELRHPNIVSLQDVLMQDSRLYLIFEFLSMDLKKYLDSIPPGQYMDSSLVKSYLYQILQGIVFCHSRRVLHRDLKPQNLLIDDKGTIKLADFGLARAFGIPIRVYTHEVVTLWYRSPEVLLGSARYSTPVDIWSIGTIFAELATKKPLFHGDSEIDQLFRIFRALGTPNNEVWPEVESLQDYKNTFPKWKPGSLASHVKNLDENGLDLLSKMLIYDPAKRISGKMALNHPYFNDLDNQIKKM
CDK1/cyclin B, sequence (P14635 whole entry partner, species assumed): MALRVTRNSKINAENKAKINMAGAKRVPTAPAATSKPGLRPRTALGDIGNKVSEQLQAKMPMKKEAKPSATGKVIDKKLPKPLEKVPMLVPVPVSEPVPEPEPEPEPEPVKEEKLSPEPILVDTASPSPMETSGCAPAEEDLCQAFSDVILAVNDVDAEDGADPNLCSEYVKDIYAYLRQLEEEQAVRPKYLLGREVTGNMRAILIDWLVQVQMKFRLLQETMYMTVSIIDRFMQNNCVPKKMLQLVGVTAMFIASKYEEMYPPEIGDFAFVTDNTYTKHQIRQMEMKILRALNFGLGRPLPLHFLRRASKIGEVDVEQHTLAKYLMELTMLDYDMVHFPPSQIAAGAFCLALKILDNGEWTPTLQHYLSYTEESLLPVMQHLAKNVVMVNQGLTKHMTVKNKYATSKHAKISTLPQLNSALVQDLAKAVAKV
Protocol: (§1) CDK1,4,6,7 enzyme (CDK1/cyclin B, CDK4/cyclin D1, CDK6/cyclin D1, CDK7/cyclin H) activity was measured using a 5 μL enzyme system (50 mM HEPES, 10 mM MgCl2, 1 mM EGTA, 2 mM DTT and 0.0100 Tween 20, appropriate enzyme) either. A mixture of 2.5 μL of compound, 2.5 µL of substrate and ATP (final concentration of substrate 50 nM, final concentration of ATP 200 μM) was incubated at room temperature in the dark for 60 minutes. Then 5 μL EDTA stop solution diluted in 1× detection buffer (final concentration 6 mM) was added to each well, then an antibody diluted in 1× detection buffer (final concentration 2 nM) was added to incubate for 1 hour at room temperature in the dark, and then the corresponding enzyme activity inhibition rate or IC50 was calculated after measurement.

CDK4/cyclin D1 = CDK4/cyclin D1 (Homo sapiens, UniProt P11802); assay: CDK4 enzyme activity inhibition; type: biochemical; conditions: for inhibition at 0.01 µM: compound 10 nM, read-out: CDK4/Cyc D1 inhibition rate % 10 nM; for inhibition at 0.1 µM: compound 100 nM, read-out: CDK4/Cyc D1 inhibition rate % 100 nM
CDK4/cyclin D1, sequence (P11802 whole entry, species assumed): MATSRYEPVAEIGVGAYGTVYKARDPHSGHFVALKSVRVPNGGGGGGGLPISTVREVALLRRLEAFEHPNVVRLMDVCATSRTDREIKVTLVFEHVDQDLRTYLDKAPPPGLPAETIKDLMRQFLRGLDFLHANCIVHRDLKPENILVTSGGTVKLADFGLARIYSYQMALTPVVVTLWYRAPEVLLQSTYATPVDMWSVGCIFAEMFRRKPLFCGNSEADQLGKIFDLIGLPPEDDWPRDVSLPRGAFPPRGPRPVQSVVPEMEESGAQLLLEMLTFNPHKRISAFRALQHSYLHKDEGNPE
CDK4/cyclin D1, sequence (P24385 whole entry partner, species assumed): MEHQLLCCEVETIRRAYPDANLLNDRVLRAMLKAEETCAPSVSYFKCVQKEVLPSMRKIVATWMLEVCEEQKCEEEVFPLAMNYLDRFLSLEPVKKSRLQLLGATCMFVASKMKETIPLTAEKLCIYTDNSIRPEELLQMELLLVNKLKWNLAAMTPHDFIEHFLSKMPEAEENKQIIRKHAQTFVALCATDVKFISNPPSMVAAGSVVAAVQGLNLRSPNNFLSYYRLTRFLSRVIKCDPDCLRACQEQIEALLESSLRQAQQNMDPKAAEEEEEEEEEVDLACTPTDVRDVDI
Protocol: as §1

CDK6/cyclin D1 = CDK6/cyclin D1 (Homo sapiens, UniProt Q00534); assay: CDK6 enzyme activity inhibition; type: biochemical; conditions: for inhibition at 0.01 µM: compound 10 nM, read-out: CDK6/Cyc D1 inhibition rate % 10 nM; for inhibition at 0.1 µM: compound 100 nM, read-out: CDK6/Cyc D1 inhibition rate % 100 nM
CDK6/cyclin D1, sequence (Q00534 whole entry, species assumed): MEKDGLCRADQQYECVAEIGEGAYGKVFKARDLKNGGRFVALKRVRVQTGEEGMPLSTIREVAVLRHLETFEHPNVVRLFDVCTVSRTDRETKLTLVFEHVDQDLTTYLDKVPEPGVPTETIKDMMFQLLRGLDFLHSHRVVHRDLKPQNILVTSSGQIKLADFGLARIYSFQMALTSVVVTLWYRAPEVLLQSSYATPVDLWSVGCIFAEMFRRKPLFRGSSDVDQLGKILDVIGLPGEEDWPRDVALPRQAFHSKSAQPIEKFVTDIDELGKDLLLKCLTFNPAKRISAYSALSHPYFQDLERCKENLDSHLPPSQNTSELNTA
CDK6/cyclin D1, sequence (P24385 whole entry partner, species assumed): as the sequence (P24385 whole entry partner, species assumed) above
Protocol: as §1

CDK7/cyclin H = CDK7/cyclin H (Homo sapiens, UniProt P50613); assay: CDK7 enzyme activity inhibition; type: biochemical; conditions: for inhibition at 0.01 µM: compound 10 nM, read-out: CDK7/Cyc H inhibition rate % 10 nM; for inhibition at 0.1 µM: compound 100 nM, read-out: CDK7/Cyc H inhibition rate % 100 nM
CDK7/cyclin H, sequence (P50613 whole entry, species assumed): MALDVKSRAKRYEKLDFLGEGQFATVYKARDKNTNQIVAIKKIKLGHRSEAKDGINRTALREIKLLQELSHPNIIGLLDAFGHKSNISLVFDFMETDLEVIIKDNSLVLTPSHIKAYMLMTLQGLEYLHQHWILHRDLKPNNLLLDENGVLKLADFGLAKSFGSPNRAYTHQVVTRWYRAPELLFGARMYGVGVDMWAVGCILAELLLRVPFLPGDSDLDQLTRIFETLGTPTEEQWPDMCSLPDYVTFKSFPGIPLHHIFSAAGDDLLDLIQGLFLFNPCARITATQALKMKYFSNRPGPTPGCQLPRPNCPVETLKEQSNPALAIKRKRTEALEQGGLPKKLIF
CDK7/cyclin H, sequence (P51946 whole entry partner, species assumed): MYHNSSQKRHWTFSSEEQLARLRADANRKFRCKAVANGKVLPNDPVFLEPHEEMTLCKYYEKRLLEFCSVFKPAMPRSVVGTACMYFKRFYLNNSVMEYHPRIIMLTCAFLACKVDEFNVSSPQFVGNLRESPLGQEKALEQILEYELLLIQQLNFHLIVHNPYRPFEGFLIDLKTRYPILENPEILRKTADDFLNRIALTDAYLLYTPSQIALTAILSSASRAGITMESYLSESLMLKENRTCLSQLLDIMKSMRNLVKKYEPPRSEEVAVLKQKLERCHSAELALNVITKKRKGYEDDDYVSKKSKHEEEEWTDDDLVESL
Protocol: as §1

[3] = system: phosphorylation of Pol II S2 position; assay: Western Blot, CDK9 signaling pathway in WSU-DLCL2 cells: Pol II S2 phosphorylation; type: cell-based; conditions: 24 hours
Protocol: (§2) Western Blot was used to detect the effect of compounds on the activation of CDK9 signaling pathway in WSU-DLCL2 cells.
(§3) Experimental method: An appropriate amount of WSU-DLCL2 cells were seeded in a 6-well plate. After 24 hours of exposure to the test compound, the cells were collected by centrifugation. A corresponding amount of 1× loading buffer (50 mM Tris-HCl (pH6.8), 2% SDS, 0.1% bromophenol blue, 10% glycerol) was added, the sample was boiled at 100° C. after lysis. The same volume of sample was taken. After SDS-PAGE electrophoresis, the protein on the gel was transferred to a nitrocellulose membrane. The corresponding band was cut according to the size of the protein and blocked TBST containing 5% skimmed milk powder (20 mM Tris-HCl, 150 mM NaCl, 0.1% Tween20, adjust pH to 7.4) for 1 hour, and primary antibody was incubated overnight at 4° C. TBST was used to elute excess primary antibody for 10 minutes each time for three times, the secondary antibody was incubated at room temperature for 1 hour, and then TBST was used to elute excess secondary antibody for 10 minutes each time for three times. Finally, the strips were colored and photographed using a Bio-Rad colorimeter.

Mcl-1 = assay: Western Blot, CDK9 signaling pathway in WSU-DLCL2 cells: Mcl-1 expression; type: cell-based; conditions: 24 hours
Protocol: as §2, §3

[4] = Identification of metabolites in mouse plasma; type: in vivo
[5] = original form and metabolites of compound 47 in mouse plasma, iv

CL_obs ([1]; i.v.)	Vss_obs ([1]; i.v.)	AUC(0-t) ([1]; iv, 3 mg/kg)	half-life ([1]; iv, 3 mg/kg)	AUC(0-inf) ([1]; iv, 3 mg/kg, i.v.)	MRT inf ([1]; iv, 3 mg/kg, i.v.)	AUC(0-t) ([1]; po)	Cmax ([1]; po)	Tmax ([1]; po)	inhibition at 0.01 µM [2]	inhibition at 0.1 µM [2]	IC50 [2]	inhibition at 0.01 µM (CDK1/cyclin B)	inhibition at 0.1 µM (CDK1/cyclin B)	inhibition at 0.01 µM (CDK4/cyclin D1)	inhibition at 0.1 µM (CDK4/cyclin D1)	inhibition at 0.01 µM (CDK6/cyclin D1)	inhibition at 0.1 µM (CDK6/cyclin D1)	inhibition at 0.01 µM (CDK7/cyclin H)	inhibition at 0.1 µM (CDK7/cyclin H)	Compound	further results
102 mL/min/kg	14.318 L/kg	480 ng·h/mL	3.84 h	491 ng·h/mL	2.34 h	98.8 ng·h/mL	58.2 ng/mL	0.5 h	71%	84%	5.1 nM	5%	33.4%	13.6%	41.1%	4.6%	26.7%	15%	50%	CC(=O)N[C@H]1CC[C@H](NC(=O)Nc2cc(-c3cnn4c3CC(C)(C)C4)c(Cl)cn2)CC1 [Example 47, N-((1r,4r)-4-(3-(5-chloro-4-(5,5-dimethyl-5,6-dihydro-4H-pyrrolo[1,2-b]pyrazol-3-yl)pyridin-2-yl)ureido)cyclohexyl)acetamide]	IC50 (WSU-DLCL2 cells): < 4.5 nM; IC50 (U2932): 0.932 nM; IC50 (Pfeiffer): 0.052 nM; growth inhibition potency relative to positive control compound AZD4573 (Pfeiffer; Pfeiffer cells, IC50 ratio): 46.67 times; IC50 (Will2): 2.16 nM; growth inhibition potency relative to positive control compound AZD4573 (422; 422 cells, IC50 ratio): 20.33 times; IC50 422: 0.089 nM; phosphorylation of Pol II S2 position ([3]; 50 nM, vs control group): significantly down-regulated; phosphorylation of Pol II S2 position ([3]; 100 nM): basically completely inhibited; Mcl-1 expression (Mcl-1; 50 nM): significant decrease; Mcl-1 expression (Mcl-1; 100 nM): almost completely blocked; plasma clearance rates compared with AZD4573 [1]: lower; half-life ([1]; po, 10 mg/kg): 1.5 h; AUC(0-inf) ([1]; po): 100 ng·h/mL; MRT inf ([1]; po): 1.57 h; F [1]: 6.18%; plasma stability compared with positive compound AZD4573 ([4]; mouse plasma, from metabolite identification): higher plasma stability
									68%	85%	5.3 nM	4.7%	47.4%	9.5%	18%	4%	19.1%	-4%	44%	CC(=O)N[C@H]1CC[C@@H](NC(=O)Nc2cc(-c3cnn4c3CC(C)(C)C4)c(Cl)cn2)CC1 [Example 67, N-((1s,4s)-4-(3-(5-chloro-4-(5,5-dimethyl-5,6-dihydro-4H-pyrrolo[1,2-b]pyrazol-3-yl)pyridin-2-yl)ureido)cyclohexyl)acetamide]	
									58.9%	93.7%										CC1(C)Cc2c(-c3cc(NC(=O)NC4CCC(N5CCOCC5)CC4)ncc3Cl)cnn2C1 (stereo not drawn) [Example 92, 1-(5-chloro-4-(5,5-dimethyl-5,6-dihydro-4H-pyrrolo[1,2-b]pyrazol-3-yl)pyridin-2-yl)-3-((1r, 4r)-4-morpholinylcyclohexyl)urea]	

The next lines start with the molecule.

Compound	CL_obs ([1]; i.v.)	Vss_obs ([1]; i.v.)	AUC(0-t) ([1]; iv, 3 mg/kg)	half-life ([1]; iv, 3 mg/kg)	AUC(0-inf) ([1]; iv, 3 mg/kg, i.v.)	MRT inf ([1]; iv, 3 mg/kg, i.v.)	AUC(0-t) ([1]; po)	Cmax ([1]; po)	Tmax ([1]; po)	inhibition at 0.01 µM [2]	inhibition at 0.1 µM [2]	IC50 [2]	inhibition at 0.01 µM (CDK1/cyclin B)	inhibition at 0.1 µM (CDK1/cyclin B)	inhibition at 0.01 µM (CDK4/cyclin D1)	inhibition at 0.1 µM (CDK4/cyclin D1)	inhibition at 0.01 µM (CDK6/cyclin D1)	inhibition at 0.1 µM (CDK6/cyclin D1)	inhibition at 0.01 µM (CDK7/cyclin H)	inhibition at 0.1 µM (CDK7/cyclin H)	further results
CC(=O)N[C@@H]1CCC[C@H](C(=O)Nc2cc(-c3cnn4c3CC(C)(C)C4)c(Cl)cn2)C1 [AZD4573, reference compound]	119 mL/min/kg	0.82 L/kg	416 ng·h/mL	0.11 h	419 ng·h/mL	0.11 h	73.2 ng·h/mL	219 ng/mL	0.25 h												IC50 (WSU-DLCL2 cells): < 3 nM; IC50 (U2932): 2.32 nM; IC50 (Pfeiffer): 2.43 nM; IC50 (Will2): 5.75 nM; IC50 422: 1.81 nM; half-life ([1]; po, 10 mg/kg): 0.27 h; AUC(0-inf) ([1]; po): 73.6 ng·h/mL; MRT inf ([1]; po): 0.42 h; F [1]: 5.28%
COc1cc(F)ccc1-c1ccnc(NC(=O)N[C@H]2CC[C@H](N)CC2)c1 [Example 2, 1-((1r,4r)-4-aminocyclohexyl)-3-(4-(4-fluoro-2-methoxyphenyl)pyridin-2-yl)urea]										57%	88%	5.7 nM	1.3%	7.8%	-7%	1.8%	2.6%	13.8%	-6.6%	-3.8%	
COCCN[C@H]1CC[C@H](NC(=O)Nc2cc(-c3ccc(F)cc3OC)ccn2)CC1 [Example 3, 1-(4-(4-fluoro-2-methoxyphenyl)pyridin-2-yl)-3-((1r,4r)-4-((2-methoxyethyl)amino)cyclohexyl) urea]										50.2%	96.7%	6.2 nM	-1.9%	-1.4%	7.2%	25.1%	9.9%	18.9%	-24.5%	-2.6%	
COCCN[C@H]1CC[C@H](NC(=O)Nc2cc(-c3cnn4c3CC(C)(C)C4)c(Cl)cn2)CC1 [Example 46, 1-(5-chloro-4-(5,5-dimethyl-5,6-dihydro-4H-pyrrolo[1,2-b]pyrazol-3-yl)pyridin-2-yl)-3-((1r,4r)-4-((2-methoxy)amino)cyclohexyl)urea]	68.6 mL/min/kg	3.469 L/kg	728 ng·h/mL	2.09 h	729 ng·h/mL	0.84 h	601 ng·h/mL	382 ng/mL	1 h	55%	94%	12 nM	-5.1%	11.6%	11.1%	20.9%	6.2%	21.6%	24%	59%	plasma clearance rates compared with AZD4573 [1]: lower; half-life ([1]; po, 10 mg/kg): 2.38 h; AUC(0-inf) ([1]; po): 602 ng·h/mL; MRT inf ([1]; po): 1.7 h; F [1]: 24.8%
COCC[N+](C)(C)C1CCC(NC(=O)Nc2cc(-c3cnn4c3CC(C)(C)C4)c(Cl)cn2)CC1 (stereo not drawn) [Example 91, (1r,4r)-4-(3-(5-chloro-4-(5,5-dimethyl-5,6-dihydro-4H-pyrrolo[1,2-b]pyrazol-3-yl)pyridin-2-yl)ureido)-N-(2-methoxyethyl)-N,N-dimethylcyclohexyl-1-ammonium salt]										63%	88%										
CC(=O)N[C@H]1CC[C@H](NC(=O)Nc2cc(-c3cnn4c3CC(C)(C)C4)c(Cl)cn2)CC1 [Example M0]																					Area (254 nm), value in parentheses, iv [4, 5]: (532); MS Area iv [4, 5]: 62967; MS Area po ([4]; original form and metabolites of compound 47 in mouse plasma, po): 811
